Experimental data as given in patent publication US10203334B2, “Methods and compositions related to nucleic acid binding assays” (Nubad, LLC, priority 2012, dated 2019).

How the values were obtained:
[1] = system: DNA triplex poly(dA).2poly(dT); assay: Competition dialysis; assay type: binding
Source text: (§1) Disclosed is the use of fluorescent aminosugar probes such as F-neo (42a) to probe a variety of nucleic acid targets. Competition dialysis was used as a nucleic acid screening technique to illustrate the binding of F-neo (42a) to different nucleic acid structures.
(§2) Competition dialysis studies using a fluorescein-neomycin conjugate (F-neo (42a)). […] Comparative binding of F-neo (42a) to 13 different nucleic acid structures was examined which included single strand nucleic acids [poly(dT), poly(A), poly(U)], duplexes [poly(dA).poly(dT), poly(rA).poly(dT), poly(rA).poly(rU), poly(dA).poly(rU), poly(dG).poly(dC), calf thymus], triplexes [poly(dA).2poly(dT), poly(rA).2poly(rU)], i-motif (polydC) and 16S A-site rRNA (SEQ ID No. 1). The amount of F-neo (42a) bound to each nucleic acid is shown as a bar graph in FIG. 13. Because all nucleic acids are dialyzed simultaneously in the same ligand solution, the amount of bound F-neo (42a) is directly proportional to its affinity for each nucleic acid. […] 200 μL of different nucleic acids (7.5 μM per monomeric unit of each polymer) was dialyzed for 72 h with 400 mL 100 nM ligand in 6 mM Na2HPO4, 2 mM NaH2PO4, 1 mM Na2EDTA, pH 7.0 and various Na+ concentrations as indicated.
F-neo (42a) prefers to bind to 16S A-site rRNA yielding a bound ligand concentration of 85 nM in 100 mM Na^+, 50 nM in 150 mM Na^+, and 15 nM in 200 mM Na^+ is shown in FIG. 15. […]

[2] = system: 16S A-site rRNA (SEQ ID No. 1); assay: Competition dialysis; assay type: binding, E. coli; details: 100 nM ligand, 72 h dialysis, pH 7.0
Source text: as §1, §2
(§3) F-neo (42a) prefers to bind to 16S A-site rRNA yielding a bound ligand concentration of 85 nM in 100 mM Na^+, 50 nM in 150 mM Na^+, and 15 nM in 200 mM Na^+ is shown in FIG. 15.

[3] = system: RNA triplex poly(rA).2poly(rU); assay: Competition dialysis; assay type: binding
Source text: as §1, §2, §3

[4] = system: hybrid duplex poly(dA).poly(rU); assay: Competition dialysis; assay type: binding; details: under these salt conditions (100-200 mM Na^+)
Source text: as §1, §2, §3

[5] = system: RNA duplex poly(rA).poly(rU); assay: Competition dialysis; assay type: binding; details: under these salt conditions (100-200 mM Na^+)
Source text: as §1, §2, §3

[6] = system: DNA duplex poly(dA).poly(dT), hybrid duplex poly(rA).poly(dT), calf thymus DNA, i-motif DNA, and all single-stranded nucleic acids; assay: Competition dialysis; assay type: binding
Source text: as §1, §2, §3

d(GGGGCCCC)2 = assay: ITC derived binding constant; details: 50 mM KCl, 10 mM SC, 0.5 mM EDTA (pH 6.0) at 25° C.
Source text: (§4) Determination of the pKa was done using chemometric analysis of the absorption profiles at various pH values of the covalently attached fluorescein moiety (Kubista, M., et al., (1993) Anal. Chem. 65, 994-998, Kubista, M., et al., (1995) Anal. Chim. Acta. 302, 121-125.2, 3). The pH dependent absorption profile of free fluorescein-neomycin was first analyzed to determine its pKa. […] The electrostatic potential (P) calculated from the shift in pKa, and the ITC derived binding constant (K). Electrostatic potential experiments performed in 100 mM NaCl, 10 mM SC, 0.5 mM EDTA at 25° C. ITC experiments performed in 50 mM KCl, 10 mM SC, 0.5 mM EDTA (pH 6.0) at 25° C. […] Fluorescein-neomycin concentration was 10 μM. Table 1 represents the pKa values determined from the inflection point of the pH dependent absorbance scans of free fluorescein-neomycin, fluorescein-neomycin with one molar equivalent d(CCCCGGGG)2 and d(GGGGCCCC)2. The electrostatic potential (Y) calculated from the shift in pKa, and the ITC derived binding constant (K).

d(CCCCGGGG)2 = assay: ITC derived binding constant; details: 50 mM KCl, 10 mM SC, 0.5 mM EDTA (pH 6.0) at 25° C.
Source text: as §4

[7] = system: 13 different nucleic acid structures; assay: Competition dialysis, whole panel; assay type: binding; details: Na^+ concentration increases from 100 to 200 mM
Source text: as §1, §2
The binding of F-neo (42a) to nucleic acids is affected by the salt concentration. […]

NCC1O[C@H](OC2C(O)C(OC3C(O)[C@H](N)CC(N)[C@H]3O[C@H]3OC(CN)[C@@H](O)C(O)C3N)O[C@@H]2CSCCNC(=O)CCSCC(=O)Nc2ccc(-c3c4ccc(=O)cc-4oc4cc(O)ccc34)c(C(=O)O)c2)C(N)C(O)[C@@H]1O (some centres unmarked) [F-neo (42a), Neomycin-Fluorescein Conjugate]
binding to poly(dA).2poly(dT) ([1]; 100 mM Na^+, ambient temperature (˜22° C.), triplex not formed): absence of F-neo (42a) binding | bound drug ([1]; under these salt conditions (100-200 mM Na^+)): 10 to 20 nM | bound ligand concentration ([2]; 100 mM Na^+): 85 nM | bound ligand concentration ([2]; 150 mM Na^+): 50 nM | bound ligand concentration ([2]; 200 mM Na^+): 15 nM | bound F-neo (42a) ([3]; 100 mM Na^+): 60 nM | bound F-neo (42a) ([3]; 150 mM Na^+): 20 nM | bound F-neo (42a) ([3]; 200 mM Na^+): 5 nM | bound drug [4]: 10 to 20 nM | bound drug [5]: 10 to 20 nM | binding in competition dialysis [6]: moderate to very weak binding | K (M^−1) × 10^5 (d(GGGGCCCC)2): 66.3 ± 9.7 (M^−1) × 10^5 | K (M^−1) × 10^5 (d(CCCCGGGG)2): 7.97 ± 10.9 (M^−1) × 10^5 | decrease of amount bound for each nucleic acid structure [7]: 4-5 times
